ChEMBL document CHEMBL1154442, “The total synthesis of fukiic acid, an HIV-1 integrase inhibitor” (Eur J Med Chem, 2008)

Experiments:
[1] = molecular target: T1, Human immunodeficiency virus type 1 integrase (Human immunodeficiency virus 1, UniProt Q7ZJM1); assay: Inhibition of HIV1 integrase using U5A/U5B double-stranded DNA as substrate by ELISA
[2] = test system: Human immunodeficiency virus 1; assay: Antiviral activity against HIV1 3B infected in human MT4 cells assessed as inhibition of virus-induced cytopathic effect by MTT assay; assay type: functional, organism-based; settings: Human immunodeficiency virus 1, 3B
[3] = Cytotoxicity against human MT4 cells by MTT assay; assay type: cell-based
[4] = molecular target: T1, Human immunodeficiency virus type 1 integrase; assay: Inhibition of HIV1 integrase using U5A/U5B double-stranded DNA as substrate by ELISA in presence of BSA

T1 sequence (Q7ZJM1 whole entry): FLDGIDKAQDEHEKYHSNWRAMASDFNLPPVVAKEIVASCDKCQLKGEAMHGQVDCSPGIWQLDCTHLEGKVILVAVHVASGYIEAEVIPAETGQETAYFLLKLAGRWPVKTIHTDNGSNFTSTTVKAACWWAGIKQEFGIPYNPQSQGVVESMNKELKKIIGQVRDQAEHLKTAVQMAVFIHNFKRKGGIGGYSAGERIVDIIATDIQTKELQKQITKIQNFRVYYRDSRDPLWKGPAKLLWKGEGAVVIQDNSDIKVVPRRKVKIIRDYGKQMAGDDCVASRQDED

IC50 [1]: 250 nM | IC50 [4]: 17 µM
SMILES: O=C(O)C(O)C(O)(Cc1ccc(O)c(O)c1)C(=O)O (racemic)
EC50 [2]: > 22 µM | CC50 [3]: 22 µM
